These results are taken from patent publication US20040106644A1, “Composition for treatment of night sight problems(halos, comas and glare) after refractive surgery, intra ocular lens implant after lensectomy or intraocular implant in phakic patients comprising aceclidine employed at low concentrations” (priority 2001, published 2004).

For data set [1], the system named is patients who underwent refractive surgery. Put plainly: double-masked randomized clinical trial on night sight problems (halos, coma, glare) after refractive surgery. Format: in vivo, human. As to the method:
A double-masked randomized clinical trial with 14 patients (27 eyes) has been organized by dividing the patients in three different groups: 8 patients were treated with placebo, 10 patients were treated with a first ophthalmic composition (I dilution), 9 patients were treated with a second ophthalmic composition (II dilution).
The patients belonging to this trial had to go through an ophthalmic examination: of the haze grading and of natural and corrected visual acuity, intra ocular pressure (IOP), pupillometry in mesopic conditions with split lamp and examination of corneal maps. The anamnestic data about the surgical operation were collected: the refractive surgery technique employed (PRK/LASIK), the date of the surgical operation, data about the corrected optical zone and the ametropy kind. The night sight problems had to be stable for at least three months after the surgical operation for the patient to be included in the trial.
The patients had to identify the image they perceived before and during the pharmacological treatment, with follow-up examinations fixed every 15-30 days. At the end of the clinical trial the patients had to provide information about the efficacy and duration (in terms of hours) of the treatment, onset time of the effect, changes of the visual capabilities and side effects, if any.
The ophthalmic compositions were prepared according to the following procedure:
I dilution, 4 IU of aceclidine 2% were diluted in 5 mL of hyaluronic acid (0.200 g/100 mL)
II dilution, 8 IU of aceclidine 2% were diluted in 5 mL of hyaluronic acid (0.200 g/100 mL)
Placebo consisted in 5 mL of hyaluronic acid (0.200 g/100 mL).
The three ophthalmic compositions (I dilution, II dilution and placebo) were administered to the 14 patients belonging to the clinical trial in a blind way.

The next data set relates to healthy people. Description: pupillary diameter after instillation in healthy people. In kind it is in vivo, human. The following applies: ophthalmic composition with aceclidine in very low concentrations, for four to six hours (summary statement). As to the method:
The two ophthalmic compositions, I and II dilution, were administered firstly to a group of healthy people: one eye was treated with the I dilution composition (0.016%), the second eye with the II dilution composition (0.032%), measuring the pupillary diameter in the same light conditions at 30 minutes, 1-2-3-4-5-6 hours after the first instillation.

The mark [2] stands for this setting: patients treated with refractive surgery, aceclidine in very low concentrations (summary statement).

Regarding `CC(=O)OC1CN2CCC1CC2` (stereo not drawn) [aceclidine, 3-acetoxyquinuclidine], in data set [1] (aceclidine 0.016% to 0.040% of total weight), the “side effects in the effective concentration range” value was “no relevant side effects are detectable”. The “duration of action after instillation” value in data set [1] (aceclidine 0.016% to 0.040%, instilled 10-20 minutes before need (summary statement)) lay in the range of 4 to 6 h. Also, in data set [1] (setting [2]), the “duration of light, transitory conjunctival hyperemia” value was 5 to 10 min; the “headache or sight reduction” value is on record as “no headache or sight reduction”; the “improvement of halos, coma and glare” value is “statistically significant improvement”. Moreover, in the data set with healthy people, the pupil diameter reduction is recorded as 2-3 mm.
